How the values were obtained:
CDK9/CycT1 = target: T1, CDK9/CycT1 (Homo sapiens, UniProt P50750); test: CDK9/CycT1 kinase assay (Method 1a, TR-FRET); format: biochemical; conditions: 10 μM ATP; for Selectivity CDK9 over CDK2: IC50 (CDK2)/IC50 (CDK9): Methods 1a. and 2a.
T1 construct: Recombinant full-length His-tagged human CDK9 and CycT1; His; purchased Invitrogen PV4131; host or cells: insect cells
Source text: 1a. CDK9/CycT1 Kinase Assay:
CDK9/CycT1-Inhibitory Activity of Compounds of the Present Invention was Quantified Employing the CDK9/CycT1 TR-FRET Assay as Described in the Following Paragraphs:
Recombinant full-length His-tagged human CDK9 and CycT1, expressed in insect cells and purified by Ni-NTA affinity chromatography, were purchased from Invitrogen (Cat. No PV4131). As substrate for the kinase reaction biotinylated peptide biotin-Ttds-YISPLKSPYKISEG (C-terminus in amid form) was used which can be purchased e.g. form the company JERINI Peptide Technologies (Berlin, Germany). For the assay 50 nl of a 100 fold concentrated solution of the test compound in DMSO was pipetted into a black low volume 384 well microtiter plate (Greiner Bio-One, Frickenhausen, Germany), 2 μl of a solution of CDK9/CycT1 in aqueous assay buffer [50 mM Tris/HCl pH 8.0, 10 mM MgCl2, 1.0 mM dithiothreitol, 0.1 mM sodium ortho-vanadate, 0.01% (v/v) Nonidet-P40 (Sigma)] were added and the mixture was incubated for 15 min at 22° C. to allow pre-binding of the test compounds to the enzyme before the start of the kinase reaction. Then the kinase reaction was started by the addition of 3 μl of a solution of adenosine-tri-phosphate (ATP, 16.7 μM=>final conc. in the 5 μl assay volume is 10 μM) and substrate (1.67 μM=>final conc. in the 5 μl assay volume is 1 μM) in assay buffer and the resulting mixture was incubated for a reaction time of 25 min at 22° C. The concentration of CDK9/CycT1 was adjusted depending of the activity of the enzyme lot and was chosen appropriate to have the assay in the linear range, typical concentrations were in the range of 1 μg/mL. The reaction was stopped by the addition of 5 μl of a solution of TR-FRET detection reagents (0.2 μM streptavidine-XL665 [Cisbio Bioassays, Codolet, France] and 1 nM anti-RB(pSer807/pSer811)-antibody from BD Pharmingen [#558389] and 1.2 nM LANCE EU-W1024 labeled anti-mouse IgG antibody [Perkin-Elmer, product no. AD0077]) in an aqueous EDTA-solution (100 mM EDTA, 0.2% (w/v) bovine serum albumin in 100 mM HEPES/NaOH pH 7.0).
(§1) The resulting mixture was incubated 1 h at 22° C. to allow the formation of complex between the phosphorylated biotinylated peptide and the detection reagents. Subsequently the amount of phosphorylated substrate was evaluated by measurement of the resonance energy transfer from the Eu-chelate to the streptavidine-XL. Therefore, the fluorescence emissions at 620 nm and 665 nm after excitation at 350 nm was measured in a HTRF reader, e.g. a Rubystar (BMG Labtechnologies, Offenburg, Germany) or a Viewlux (Perkin-Elmer). The ratio of the emissions at 665 nm and at […] was taken as the measure for the amount of phosphorylated substrate. The data were normalised (enzyme reaction without inhibitor=0% inhibition, all other assay components but no enzyme=100% inhibition).

CDK2/CycE = target: T2, CDK2/CycE (Homo sapiens, UniProt P24941); test: CDK2/CycE kinase assay (Method 2a, TR-FRET); format: biochemical; conditions: 10 μM ATP
T2 construct: GST; purchased ProQinase GmbH (Freiburg, Germany); host or cells: insect cells (Sf9)
Source text: 2a. CDK2/CycE kinase assay:
CDK2/CycE-Inhibitory Activity of Compounds of the Present Invention was Quantified Employing the CDK2/CycE TR-FRET Assay as Described in the Following Paragraphs:
Recombinant fusion proteins of GST and human CDK2 and of GST and human CycE, expressed in insect cells (Sf9) and purified by Glutathion-Sepharose affinity chromatography, were purchased from ProQinase GmbH (Freiburg, Germany). As substrate for the kinase reaction biotinylated peptide biotin-Ttds-YISPLKSPYKISEG (C-terminus in amid form) was used which can be purchased e.g. form the company JERINI Peptide Technologies (Berlin, Germany).
For the assay 50 nl of a 100 fold concentrated solution of the test compound in DMSO was pipetted into a black low volume 384 well microtiter plate (Greiner Bio-One, Frickenhausen, Germany), 2 yl of a solution of CDK2/CycE in aqueous assay buffer [50 mM Tris/HCl pH 8.0, 10 mM MgCl2, 1.0 mM dithiothreitol, 0.1 mM sodium ortho-vanadate, 0.01% (v/v) Nonidet-P40 (Sigma)] were added and the mixture was incubated for 15 min at 22° C. to allow pre-binding of the test compounds to the enzyme before the start of the kinase reaction. […] The concentration of CDK2/CycE was adjusted depending of the activity of the enzyme lot and was chosen appropriate to have the assay in the linear range, typical concentrations were in the range of 130 ng/mL. The reaction was stopped by the addition of 5 yl of a solution of TR-FRET detection reagents (0.2 μM streptavidine-XL665 [Cisbio Bioassays, Codolet, France] and 1 nM anti-RB(pSer807/pSer811)-antibody from BD Pharmingen [#558389] and 1.2 nM LANCE EU-W1024 labeled anti-mouse IgG antibody [Perkin-Elmer, product no. AD0077]) in an aqueous EDTA-solution (100 mM EDTA, 0.2% (w/v) bovine serum albumin in 100 mM HEPES/NaOH pH 7.0).
as §1, with “TR-FRET” for “HTRF”

T1 sequence (P50750 whole entry): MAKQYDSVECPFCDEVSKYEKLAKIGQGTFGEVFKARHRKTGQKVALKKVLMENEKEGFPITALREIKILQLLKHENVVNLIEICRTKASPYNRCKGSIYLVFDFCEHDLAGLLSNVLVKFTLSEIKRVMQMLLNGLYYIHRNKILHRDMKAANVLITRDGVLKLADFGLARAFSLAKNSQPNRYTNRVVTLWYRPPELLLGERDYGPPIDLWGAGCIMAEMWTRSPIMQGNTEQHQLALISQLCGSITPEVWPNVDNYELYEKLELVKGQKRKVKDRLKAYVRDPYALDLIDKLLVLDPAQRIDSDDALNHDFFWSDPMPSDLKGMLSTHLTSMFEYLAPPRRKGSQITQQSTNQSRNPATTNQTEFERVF
T1 sequence (O60563 whole entry partner): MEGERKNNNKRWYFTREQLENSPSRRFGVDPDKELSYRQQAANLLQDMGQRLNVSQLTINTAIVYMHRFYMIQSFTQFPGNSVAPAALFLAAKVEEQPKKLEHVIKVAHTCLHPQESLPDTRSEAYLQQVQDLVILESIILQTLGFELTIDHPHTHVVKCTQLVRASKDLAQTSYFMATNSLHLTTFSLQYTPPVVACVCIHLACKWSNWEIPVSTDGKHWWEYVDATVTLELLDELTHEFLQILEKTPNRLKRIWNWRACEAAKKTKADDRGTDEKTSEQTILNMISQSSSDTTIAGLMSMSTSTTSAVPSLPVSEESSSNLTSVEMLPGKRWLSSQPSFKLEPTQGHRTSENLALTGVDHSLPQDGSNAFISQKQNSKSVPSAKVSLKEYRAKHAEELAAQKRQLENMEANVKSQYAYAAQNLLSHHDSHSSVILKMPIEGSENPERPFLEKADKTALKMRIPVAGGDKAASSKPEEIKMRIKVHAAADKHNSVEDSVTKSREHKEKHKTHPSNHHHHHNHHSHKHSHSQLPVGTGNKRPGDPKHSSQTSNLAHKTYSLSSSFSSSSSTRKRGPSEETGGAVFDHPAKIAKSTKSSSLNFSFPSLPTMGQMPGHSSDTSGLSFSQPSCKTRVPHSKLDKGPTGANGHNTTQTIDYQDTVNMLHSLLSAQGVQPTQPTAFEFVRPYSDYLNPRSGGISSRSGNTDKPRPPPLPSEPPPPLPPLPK

Compound | IC50 (CDK9/CycT1) [nM] | Selectivity CDK9 over CDK2: IC50 (CDK2)/IC50 (CDK9) (CDK9/CycT1) | IC50 (CDK2/CycE) [nM]
CS(=N)(=O)Cc1cc(F)cc(Nc2ncc(F)c(-c3ccc(F)c4ccoc34)n2)c1 (single isomer, unassigned) [Example 12, 5-Fluoro-4-(4-fluoro-1-benzofuran-7-yl)-N-{3-fluoro-5-[(S-methylsulfonimidoyl)-methyl]-phenyl}-pyrimidin-2-amine] | 3.1 | 15 | 48
CS(=O)(Cc1cccc(Nc2ncc(F)c(-c3ccc(F)c4ccoc34)n2)c1)=NC#N (single isomer, unassigned) [Example 2, [(3-{[5-Fluoro-4-(4-fluoro-1-benzofuran-7-yl)pyrimidin-2-yl]amino}benzyl)(methyl)oxido-λ^6-sulfanylidene]cyanamide] | 1.4 | 14 | 19
CS(=N)(=O)Cc1cccc(Nc2ncc(F)c(-c3ccc(F)c4ccoc34)n2)c1 (single isomer, unassigned) [Example 6, 5-Fluoro-4-(4-fluoro-1-benzofuran-7-yl)-N-{3-[(S-methylsulfonimidoyl)-methyl]-phenyl}-pyrimidin-2-amine] | 2.6 | 22 | 57
